# pEC50: −log10 of the molar value.
# Biological target: T1, GLP-1R (Homo sapiens, UniProt P43220)
# T1 construct: expressed in transfected cells; host or cells: HEK293
# Test: GLP-1R agonist assay: CRE6x-LUC luciferase reporter in transiently transfected HEK293 cells
# Format: cell-based
# Details: not given
# Method: Briefly, HEK293 cells were plated at a density of 2−3×10^3 cells per well onto clear-bottom, white, 96-well plates and grown for 2 days to ˜80% confluency. Cells were then transiently transfected by using Lipofectamine reagent (Invitrogen) with cDNA encoding (1) a GPCR (or empty expression vector); (ii) a cAMP-responsive element-luciferase reporter gene (CRE6X-luc), and (iv) β-galactosidase as a control. Cells were incubated with or without the selected peptide agonist in serum-free medium for 6 h. Luciferase activity was quantified by using Steadylite reagent (Perkin-Elmer). A β-galactosidase assay then was performed after adding the enzyme substrate 2-nitrophenyl β-d-galactopyranoside.
# Cellular assays for receptor binding and intracellular signaling were carried out with the compounds of the invention. Briefly, HEK 293 cells were transiently transfected with cDNAs encoding (i) GLP-1R (or the empty expression vector), (ii) the CRE6x-LUC reporter gene (which senses cAMP production triggered by receptor stimulation), and (iii) β-galactosidase (as a control for transfection efficiency). After transfection for 24 h, cells were incubated with a peptide at various concentrations (or control/blank) in serum-free medium for 6 h. The cells were then lysed, SteadyLite reagent (PerkinElmer) is added, and luciferase activity is measured in a TopCount NXT HTS plate luminometer. After further incubation with a chromogenic substrate (2-nitrophenyl β-D-galactopyranoside), optical density at 420 nm is determined by spectrophotometry, as a control to correct for interwell transfection variability. Sigmoidal concentration-response curves of GLP-1R ligand activity is calculated to determine potency.
# Plotting concentration versus the luciferase activity yielded quantitative parameters for combined binding (potency) and signaling (efficacy) in a single step. […] DPP4 treated peptides: 10 μl of 0.26 mM peptide were incubated with 2 μL DPP4 in buffer ±DMSO for 18 hrs. Control peptides: 10 μl of 0.26 mM peptide was added to buffer ±DMSO. The final DMSO concentration was the same for all peptides and all peptides were diluted to 0.26 mM concentrations for the DPP4 assay.
# T1 sequence (P43220 24-463, species assumed): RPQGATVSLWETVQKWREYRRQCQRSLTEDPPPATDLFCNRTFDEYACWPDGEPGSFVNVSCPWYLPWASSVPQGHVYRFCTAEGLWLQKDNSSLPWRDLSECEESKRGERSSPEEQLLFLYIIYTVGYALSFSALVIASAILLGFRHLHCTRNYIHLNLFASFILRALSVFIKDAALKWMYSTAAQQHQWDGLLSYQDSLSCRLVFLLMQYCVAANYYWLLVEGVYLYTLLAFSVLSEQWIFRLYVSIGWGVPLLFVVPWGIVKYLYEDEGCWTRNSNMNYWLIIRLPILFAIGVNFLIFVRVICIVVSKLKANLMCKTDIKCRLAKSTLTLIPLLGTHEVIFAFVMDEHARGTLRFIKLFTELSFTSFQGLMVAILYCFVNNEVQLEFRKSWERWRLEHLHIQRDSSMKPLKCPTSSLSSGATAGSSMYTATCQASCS
row,SMILES,pEC50
1,CC[C@H](C)[C@H](NC(=O)[C@H](Cc1ccccc1)NC(=O)[C@H](CCC(=O)O)NC(=O)[C@H](CCCCN)NC(=O)[C@H](C)NC(=O)[C@H](C)NC(=O)[C@H](CCC(N)=O)NC(=O)CNC(=O)[C@H](CCC(=O)O)NC(=O)[C@H](CC(C)C)NC(=O)[C@H](Cc1ccc(O)cc1)NC(=O)[C@H](CO)NC(=O)[C@H](CO)NC(=O)[C@@H](NC(=O)[C@H](CC(=O)O)NC(=O)[C@H](CO)NC(=O)[C@@H](NC(=O)[C@H](Cc1ccccc1)NC(=O)[C@@H](NC(=O)CNC(=O)[C@H](CCC(=O)O)NC(=O)[C@H](C)NC(=O)[C@H](Cc1c[nH]cn1)NC[C@H](C)N)[C@@H](C)O)[C@@H](C)O)C(C)C)C(=O)N[C@@H](C)C(=O)N[C@@H](Cc1c[nH]c2ccccc12)C(=O)N[C@@H](CC(C)C)C(=O)N[C@H](C(=O)N[C@@H](CCCCN)C(=O)NCC(=O)N[C@@H](CCCNC(=N)N)C(N)=O)C(C)C,11.59

# Same assay, conditions: Receptor GLP-1R; agonist potency; read-out: EC50
row,SMILES,pEC50
1,CCN[C@@H](Cc1c[nH]cn1)C(=O)N[C@@H](C)C(=O)N[C@@H](CCC(=O)O)C(=O)NCC(=O)N[C@H](C(=O)N[C@@H](Cc1ccccc1)C(=O)N[C@H](C(=O)N[C@@H](CO)C(=O)N[C@@H](CC(=O)O)C(=O)N[C@H](C(=O)N[C@@H](CO)C(=O)N[C@@H](CO)C(=O)N[C@@H](Cc1ccc(O)cc1)C(=O)N[C@@H](CC(C)C)C(=O)N[C@@H](CCC(=O)O)C(=O)NCC(=O)N[C@@H](CCC(N)=O)C(=O)N[C@@H](C)C(=O)N[C@@H](C)C(=O)N[C@@H](CCCCN)C(=O)N[C@@H](CCC(=O)O)C(=O)N[C@@H](Cc1ccccc1)C(=O)N[C@H](C(=O)N[C@@H](C)C(=O)N[C@@H](Cc1c[nH]c2ccccc12)C(=O)N[C@@H](CC(C)C)C(=O)N[C@H](C(=O)N[C@@H](CCCCN)C(=O)NCC(=O)N[C@@H](CCCNC(=N)N)C(N)=O)C(C)C)[C@@H](C)CC)C(C)C)[C@@H](C)O)[C@@H](C)O,11.19
2,CC[C@H](C)[C@H](NC(=O)[C@H](Cc1ccccc1)NC(=O)[C@H](CCC(=O)O)NC(=O)[C@H](CCCCN)NC(=O)[C@H](C)NC(=O)[C@H](C)NC(=O)[C@H](CCC(N)=O)NC(=O)CNC(=O)[C@H](CCC(=O)O)NC(=O)[C@H](CC(C)C)NC(=O)[C@H](Cc1ccc(O)cc1)NC(=O)[C@H](CO)NC(=O)[C@H](CO)NC(=O)[C@@H](NC(=O)[C@H](CC(=O)O)NC(=O)[C@H](CO)NC(=O)[C@@H](NC(=O)[C@H](Cc1ccccc1)NC(=O)[C@@H](NC(=O)CNC(=O)[C@H](CCC(=O)O)NC(=O)[C@H](C)NC(=O)[C@H](Cc1c[nH]cn1)NC(C)C)[C@@H](C)O)[C@@H](C)O)C(C)C)C(=O)N[C@@H](C)C(=O)N[C@@H](Cc1c[nH]c2ccccc12)C(=O)N[C@@H](CC(C)C)C(=O)N[C@H](C(=O)N[C@@H](CCCCN)C(=O)NCC(=O)N[C@@H](CCCNC(=N)N)C(N)=O)C(C)C,11.39
3,CC[C@H](C)[C@H](NC(=O)[C@H](Cc1ccccc1)NC(=O)[C@H](CCC(=O)O)NC(=O)[C@H](CCCCN)NC(=O)[C@H](C)NC(=O)[C@H](C)NC(=O)[C@H](CCC(N)=O)NC(=O)CNC(=O)[C@H](CCC(=O)O)NC(=O)[C@H](CC(C)C)NC(=O)[C@H](Cc1ccc(O)cc1)NC(=O)[C@H](CO)NC(=O)[C@H](CO)NC(=O)[C@@H](NC(=O)[C@H](CC(=O)O)NC(=O)[C@H](CO)NC(=O)[C@@H](NC(=O)[C@H](Cc1ccccc1)NC(=O)[C@@H](NC(=O)CNC(=O)[C@H](CCC(=O)O)NC(=O)[C@H](C)NC(=O)[C@H](Cc1c[nH]cn1)NCC12CC3CC(CC(C3)C1)C2)[C@@H](C)O)[C@@H](C)O)C(C)C)C(=O)N[C@@H](C)C(=O)N[C@@H](Cc1c[nH]c2ccccc12)C(=O)N[C@@H](CC(C)C)C(=O)N[C@H](C(=O)N[C@@H](CCCCN)C(=O)NCC(=O)N[C@@H](CCCNC(=N)N)C(N)=O)C(C)C,11.41
4,CC[C@H](C)[C@H](NC(=O)[C@H](Cc1ccccc1)NC(=O)[C@H](CCC(=O)O)NC(=O)[C@H](CCCCN)NC(=O)[C@H](C)NC(=O)[C@H](C)NC(=O)[C@H](CCC(N)=O)NC(=O)CNC(=O)[C@H](CCC(=O)O)NC(=O)[C@H](CC(C)C)NC(=O)[C@H](Cc1ccc(O)cc1)NC(=O)[C@H](CO)NC(=O)[C@H](CO)NC(=O)[C@@H](NC(=O)[C@H](CC(=O)O)NC(=O)[C@H](CO)NC(=O)[C@@H](NC(=O)[C@H](Cc1ccccc1)NC(=O)[C@@H](NC(=O)CNC(=O)[C@H](CCC(=O)O)NC(=O)[C@H](C)NC(=O)[C@H](Cc1c[nH]cn1)NCc1ccc(O)cc1)[C@@H](C)O)[C@@H](C)O)C(C)C)C(=O)N[C@@H](C)C(=O)N[C@@H](Cc1c[nH]c2ccccc12)C(=O)N[C@@H](CC(C)C)C(=O)N[C@H](C(=O)N[C@@H](CCCCN)C(=O)NCC(=O)N[C@@H](CCCNC(=N)N)C(N)=O)C(C)C,12.00
5,CC[C@H](C)[C@H](NC(=O)[C@H](Cc1ccccc1)NC(=O)[C@H](CCC(=O)O)NC(=O)[C@H](CCCCN)NC(=O)[C@H](C)NC(=O)[C@H](C)NC(=O)[C@H](CCC(N)=O)NC(=O)CNC(=O)[C@H](CCC(=O)O)NC(=O)[C@H](CC(C)C)NC(=O)[C@H](Cc1ccc(O)cc1)NC(=O)[C@H](CO)NC(=O)[C@H](CO)NC(=O)[C@@H](NC(=O)[C@H](CC(=O)O)NC(=O)[C@H](CO)NC(=O)[C@@H](NC(=O)[C@H](Cc1ccccc1)NC(=O)[C@@H](NC(=O)CNC(=O)[C@H](CCC(=O)O)NC(=O)[C@H](C)NC(=O)[C@H](Cc1c[nH]cn1)NCc1ccc(C2(C(F)(F)F)N=N2)cc1)[C@@H](C)O)[C@@H](C)O)C(C)C)C(=O)N[C@@H](C)C(=O)N[C@@H](Cc1c[nH]c2ccccc12)C(=O)N[C@@H](CC(C)C)C(=O)N[C@H](C(=O)N[C@@H](CCCCN)C(=O)NCC(=O)N[C@@H](CCCNC(=N)N)C(N)=O)C(C)C,9.91
6,CC[C@H](C)[C@H](NC(=O)[C@H](Cc1ccccc1)NC(=O)[C@H](CCC(=O)O)NC(=O)[C@H](CCCCN)NC(=O)[C@H](C)NC(=O)[C@H](C)NC(=O)[C@H](CCC(N)=O)NC(=O)CNC(=O)[C@H](CCC(=O)O)NC(=O)[C@H](CC(C)C)NC(=O)[C@H](Cc1ccc(O)cc1)NC(=O)[C@H](CO)NC(=O)[C@H](CO)NC(=O)[C@@H](NC(=O)[C@H](CC(=O)O)NC(=O)[C@H](CO)NC(=O)[C@@H](NC(=O)[C@H](Cc1ccccc1)NC(=O)[C@@H](NC(=O)CNC(=O)[C@H](CCC(=O)O)NC(=O)[C@H](C)NC(=O)[C@H](Cc1c[nH]cn1)NC[C@@H](O)[C@@H](O)[C@H](O)[C@H](O)CO)[C@@H](C)O)[C@@H](C)O)C(C)C)C(=O)N[C@@H](C)C(=O)N[C@@H](Cc1c[nH]c2ccccc12)C(=O)N[C@@H](CC(C)C)C(=O)N[C@H](C(=O)N[C@@H](CCCCN)C(=O)NCC(=O)N[C@@H](CCCNC(=N)N)C(N)=O)C(C)C,8.49
7,CC[C@H](C)[C@H](NC(=O)[C@H](Cc1ccccc1)NC(=O)[C@H](CCC(=O)O)NC(=O)[C@H](CCCCN)NC(=O)[C@H](C)NC(=O)[C@H](C)NC(=O)[C@H](CCC(N)=O)NC(=O)CNC(=O)[C@H](CCC(=O)O)NC(=O)[C@H](CC(C)C)NC(=O)[C@H](Cc1ccc(O)cc1)NC(=O)[C@H](CO)NC(=O)[C@H](CO)NC(=O)[C@@H](NC(=O)[C@H](CC(=O)O)NC(=O)[C@H](CO)NC(=O)[C@@H](NC(=O)[C@H](Cc1ccccc1)NC(=O)[C@@H](NC(=O)CNC(=O)[C@H](CCC(=O)O)NC(=O)[C@H](C)NC(=O)[C@H](Cc1c[nH]cn1)NCC(C)C)[C@@H](C)O)[C@@H](C)O)C(C)C)C(=O)N[C@@H](C)C(=O)N[C@@H](Cc1c[nH]c2ccccc12)C(=O)N[C@@H](CC(C)C)C(=O)N[C@H](C(=O)N[C@@H](CCCCN)C(=O)NCC(=O)N[C@@H](CCCNC(=N)N)C(N)=O)C(C)C [drawing 47],11.43
8,CC[C@H](C)[C@H](NC(=O)[C@H](Cc1ccccc1)NC(=O)[C@H](CCC(=O)O)NC(=O)[C@H](CCCCN)NC(=O)[C@H](C)NC(=O)[C@H](C)NC(=O)[C@H](CCC(N)=O)NC(=O)CNC(=O)[C@H](CCC(=O)O)NC(=O)[C@H](CC(C)C)NC(=O)[C@H](Cc1ccc(O)cc1)NC(=O)[C@H](CO)NC(=O)[C@H](CO)NC(=O)[C@@H](NC(=O)[C@H](CC(=O)O)NC(=O)[C@H](CO)NC(=O)[C@@H](NC(=O)[C@H](Cc1ccccc1)NC(=O)[C@@H](NC(=O)CNC(=O)[C@H](CCC(=O)O)NC(=O)[C@H](C)NC(=O)[C@H](Cc1c[nH]cn1)NCc1ccccc1)[C@@H](C)O)[C@@H](C)O)C(C)C)C(=O)N[C@@H](C)C(=O)N[C@@H](Cc1c[nH]c2ccccc12)C(=O)N[C@@H](CC(C)C)C(=O)N[C@H](C(=O)N[C@@H](CCCCN)C(=O)NCC(=O)N[C@@H](CCCNC(=N)N)C(N)=O)C(C)C [drawing 51],11.36

# — patent US20190055279A1, “NOVEL POLYPEPTIDES WITH IMPROVED PROTEOLYTIC STABILITY, AND METHODS OF PREPARING AND USING SAME” (TUFTS UNIVERSITY, priority 2015, published 2019)
